In patent publication US7928239B2, “Inhibition of RAF kinase using quinolyl, isoquinolyl or pyridyl ureas” (Bayer Healthcare LLC, priority 1999, dated 2011):

Row | melting point | SMILES
1 | 125 to 130 °C | CNC(=O)c1cc(Oc2ccc(NC(=O)Nc3ccc(Oc4ccnc(C(=O)NC)c4)cc3)cc2)ccn1 [Entry 103, bis(4-(2-(N-methylcarbamoyl)-4-pyridyloxy)phenyl) urea]
2 | 238 to 245 °C | CNC(=O)c1ccc(Oc2ccc(NC(=O)Nc3ccc(Cl)c(C(F)(F)F)c3)cc2)cn1 [Entry 56, N-(4-chloro-3-(trifluoromethyl)phenyl)-N′-(4-(2-(N-methylcarbamoyl)-5-pyridyloxy)phenyl) urea]
